Earlier results, collected in patent publication US20110015663A1, “Combination Therapies for the Treatment of Obesity” (priority 2009, published 2011).

conditions: literature studies

Compound	weight loss for drug compared with placebo
CC(C)(N)Cc1ccccc1 [phentermine]	about 5 % of body weight
CC(C)CC(N(C)C)C1(c2ccc(Cl)cc2)CCC1 (stereo not drawn) [sibutramine]	about 5 % of body weight
CCCCCCCCCCC[C@@H](C[C@@H]1OC(=O)[C@H]1CCCCCC)OC(=O)[C@H](CC(C)C)NC=O [orlistat]	about 5 % of body weight
CCN[C@@H](C)Cc1cccc(C(F)(F)F)c1 [dexfenfluramine]	about 5 % of body weight

conditions: not given

Compound	solubility in water
triacetyl-beta-cyclodextrin	insoluble
G-2-beta-cyclodextrin	147 % (w/v)
